In patent US20250375544A1, “DUAL MODE RADIOTRACER AND -THERAPEUTICS” (TECHNISCHE UNIVERSITÄT MÜNCHEN, priority 2021, published 2025):

Experiments:
[1] = tested on: LNCaP cells; type: cell-based, human; conditions: 1 h, 37° C., 1.0 nM ^177Lu-compound, normalized to ([^125I]I-BA)KuE
[2] = tested on: LNCaP tumor xenograft-bearing CB17-SCID mouse; test: Metabolite analysis 1 h p.i. (radio-RP-HPLC of organ and body fluid extracts); type: in vivo, mice
Experimental: […] (9.64 MBq) was injected into the tail vein of a LNCaP tumor xenograft-bearing CB17-SCID mouse. The animal was sacrificed 1 h p.i. and subjected to the standard procedure for biodistribution studies. In addition, urine was taken from all mice that were investigated in this experiment (8.4-9.0 MBq) and pooled (n=5). Relevant dissected organs (tumor, kidneys, liver) and body fluids (blood and urine) were collected, homogenized if necessary and subjected to mechanochemical as well as solid phase extraction (SPE).
Four 2 mL LoBind tubes were equipped with steel and ceramic beads from Lysis Tubes W (analytikjena, Jena, Germany) for kidneys, tumor and liver (bisected). 1 mL radioimmunoprecipitation assay (RIPA) buffer containing 2.0 μmol of 2-PMPA was added to each tube and the organs were homogenized with a MM-400 ball mill (Retsch GmbH, Haan, Germany) at 30 Hz for 20 min. Afterwards, the homogenates were transferred to LoBind tubes free from steel and ceramic beads and centrifuged (15,200 rpm, 10 min, 21° C.). The first supernatants were stored, and the precipitates were again subjected to mechanochemical extraction with 1 mL RIPA buffer (2.0 μmol PMPA) at 30 Hz for 20 min. After centrifugation (15,200 rpm, 10 min, 21° C.), also the second supernatants were kept for SPE.
After cardiac puncture, 1 mL Tracepur®-H2O was directly added to the collected blood sample and centrifuged twice (13,000 rpm, 5 min) to separate the plasma from the blood cells. The precipitate was dissolved in 500 μL Tracepur®-H2O and together with the first supernatant again centrifuged (13,000 rpm, 5 min). Both supernatants were kept for SPE.
Pooled urine samples were centrifuged (13,000 rpm, 5 min) and the supernatant was directly analyzed via radio-RP-HPLC.
For solid phase extraction, the supernatants were loaded onto Strata-X cartridges (200 mg), which were preconditioned with 5 mL MeOH and 5 mL H2O (eight cartridges in total, for all organ and blood supernatants). The cartridges were washed with 1 mL Tracepur®-H2O and dried prior to elution. For each cartridge, 750 μL of MeCN/H2O (6/4, 0.1% TFA) were used for elution and the extracts were analyzed via radio-RP-HPLC.
Besides biodistribution and μSPECT/CT studies, [^177Lu]Lu-11 (tetrazole) was analyzed according to its metabolic stability 1 h p.i. Relevant dissected organs (tumor, kidney, liver) and body fluids (blood and urine) were collected, homogenized if necessary and subjected to extraction of the incorporated activity. […] The respective radio-RP-HPLC analyses of extracts from homogenized organs and body fluids are depicted in FIG. 10.

[3] = tested on: LNCaP tumor xenograft-bearing CB17-SCID mice; test: Biodistribution in LNCaP tumor xenograft-bearing CB17-SCID mice

## CC(C)(C)[Si](F)(c1ccc(C(=O)NCC(NC(=O)CN2CCN(CC(=O)[O-])CCN(CC(=O)[O-])CCN(CC(=O)[O-])CC2)C(=O)NC(CCCCNC(=O)CCC(=O)NCCCC(NC(=O)CCC(NC(=O)NC(CCc2nnn[nH]2)C(=O)O)C(=O)O)C(=O)O)C(=O)O)cc1)C(C)(C)C.[177Lu+3] (stereo not drawn) [[^177Lu]Lu-11, [^177Lu]Lu-Tetrazole Derivative 11]
[1]
  % Internalization compared to the reference: 9.9±3.2%
[2]; blood
  metabolite with higher hydrophilicity, amount: 8.5%
[2]; kidney
  metabolite with higher hydrophilicity, amount: 11.7%
[2]; liver homogenate
  metabolite with higher hydrophilicity: not detectable
  more lipophilic metabolite (tR=20.5 min), amount: 28.0%
[2]; tumor
  metabolite with higher hydrophilicity, amount: 7.1%
[2]; urine
  metabolite with higher hydrophilicity, amount: 18.7%
[3]; 1 h p.i.
  Biodistribution Adrenals: 0.61 ± 0.42 % ID/g
  Biodistribution Blood: 1.09 ± 0.30 % ID/g
  Biodistribution Bone: 0.47 ± 0.44 % ID/g
  Biodistribution Heart: 0.41 ± 0.04 % ID/g
  Biodistribution Intestine: 0.67 ± 0.21 % ID/g
  Biodistribution Kidneys: 33.2±3.8 % ID/g
  Biodistribution Liver: 0.74 ± 0.17 % ID/g
  Biodistribution Lung: 1.23 ± 0.27 % ID/g
  Biodistribution Muscle: 0.15 ± 0.03 % ID/g
  Biodistribution Pancreas: 0.33 ± 0.11 % ID/g
  Biodistribution Parotid gland: 0.56 ± 0.08 % ID/g
  Biodistribution Spleen: 1.04 ± 0.15 % ID/g
  Biodistribution Stomach: 1.55 ± 1.67 % ID/g
  Biodistribution Submandibular gland: 0.40 ± 0.05 % ID/g
  Biodistribution Tumor: 3.40±0.63 % ID/g
  Ratio Tumor-to-blood: 3.46 ± 1.62
  Ratio Tumor-to-kidney: 0.10 ± 0.03
  Ratio Tumor-to-liver: 5.00 ± 2.11
  Ratio Tumor-to-muscle: 24.9 ± 10.2
  Ratio Tumor-to-parotid gland: 6.20 ± 1.74
  Ratio Tumor-to-submandibular gland: 8.74 ± 2.52
[3]; 1 h p.i. vs 24 h p.i.
  tumor-to-submandibularis and -parotidea ratios at 1 h p.i. compared to respective values at 24 h p.i.: two-fold lower
[3]; 24 h p.i.
  Biodistribution Adrenals: 0.17 ± 0.19 % ID/g
  Biodistribution Blood: 0.00 ± 0.00 % ID/g
  Biodistribution Bone: 0.18 ± 0.04 % ID/g
  Biodistribution Heart: 0.02 ± 0.00 % ID/g
  Biodistribution Intestine: 0.52 ± 0.68 % ID/g
  Biodistribution Kidneys: 3.23 ± 0.77 % ID/g
  Biodistribution Liver: 0.18 ± 0.04 % ID/g
  Biodistribution Lung: 0.05 ± 0.02 % ID/g
  Biodistribution Muscle: 0.02 ± 0.01 % ID/g
  Biodistribution Pancreas: 0.02 ± 0.00 % ID/g
  Biodistribution Parotid gland: 0.06 ± 0.02 % ID/g
  Biodistribution Spleen: 0.11 ± 0.03 % ID/g
  Biodistribution Stomach: 0.12 ± 0.11 % ID/g
  Biodistribution Submandibular gland: 0.04 ± 0.01 % ID/g
  Biodistribution Tumor: 0.68 ± 0.16 % ID/g
  Ratio Tumor-to-blood: 227 ± 50
  Ratio Tumor-to-kidney: 0.22 ± 0.06
  Ratio Tumor-to-liver: 3.74 ± 0.50
  Ratio Tumor-to-muscle: 55.9 ± 24.3
  Ratio Tumor-to-parotid gland: 12.2 ± 1.7
  Ratio Tumor-to-submandibular gland: 16.9 ± 2.2
[3]; 24 h p.i., in comparison to [^177Lu]Lu-PSMA-10
  factor by which tumor-to-submandibular gland and tumor-to-parotid gland ratios declined: 8
